IC50 data for 14 compounds are collected here from ChEMBL document CHEMBL4346732, “Inhibition of neutral lipid synthesis by avarols from a marine sponge” (Bioorg Med Chem Lett, 2019).

pIC50: −log10 of the molar value.

Experiment [1] in a line: Inhibition of DGAT-mediated oleic acid-induced [14C]neutral lipid synthesis in CHOK1 cells after 6 hrs using [14C]oleic acid by […]. It counts as cell-based. Particulars: Cricetulus griseus, CHO-K1, 6 h.
The nature of experiment [2]: Inhibition of SOAT-mediated oleic acid-induced [14C]cholesterol ester accumulation in CHOK1 cells after 6 hrs using [14C]oleic acid by […]. Type of experiment: cell-based. Particulars: Cricetulus griseus, CHO-K1, 6 h.
The subject of another experiment is CHO-K1. Briefly: Cytotoxicity against CHOK1 cells assessed as reduction in cell viability. Type of experiment: cell-based. Particulars: Cricetulus griseus.
The target in experiment [3] is T1, Sterol O-acyltransferase 1 (Cricetulus griseus, UniProt Q60457).
T1 sequence (Q60457 whole entry): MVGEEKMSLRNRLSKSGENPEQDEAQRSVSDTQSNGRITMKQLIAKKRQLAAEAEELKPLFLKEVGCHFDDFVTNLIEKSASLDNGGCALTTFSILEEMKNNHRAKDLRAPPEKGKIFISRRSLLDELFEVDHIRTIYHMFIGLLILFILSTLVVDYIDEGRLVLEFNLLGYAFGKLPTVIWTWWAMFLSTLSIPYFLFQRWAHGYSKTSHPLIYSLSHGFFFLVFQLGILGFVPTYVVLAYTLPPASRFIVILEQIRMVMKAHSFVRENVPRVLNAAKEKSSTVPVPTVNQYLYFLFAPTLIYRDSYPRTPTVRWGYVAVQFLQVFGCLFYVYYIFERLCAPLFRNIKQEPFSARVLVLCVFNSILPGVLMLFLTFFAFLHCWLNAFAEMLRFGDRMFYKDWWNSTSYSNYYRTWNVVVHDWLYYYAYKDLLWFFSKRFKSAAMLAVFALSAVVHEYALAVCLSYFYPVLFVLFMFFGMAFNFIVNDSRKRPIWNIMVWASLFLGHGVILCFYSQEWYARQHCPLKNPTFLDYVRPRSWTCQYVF
Briefly: Inhibition of SOAT1 in CHO cell microsomal fraction using [1-14C]oleoyl-CoA as substrate measured after 5 mins by TLC based method.

Experiment [4] can be described thus: Inhibition of SOAT2 in CHO cell microsomal fraction using [1-14C]oleoyl-CoA as substrate measured after 5 mins by TLC based method. Further details: species or system Cricetulus griseus.
The target in experiment [5] is T2, Sterol O-acyltransferase 1 (Chlorocebus aethiops, UniProt O77760).
T2 sequence (O77760 whole entry): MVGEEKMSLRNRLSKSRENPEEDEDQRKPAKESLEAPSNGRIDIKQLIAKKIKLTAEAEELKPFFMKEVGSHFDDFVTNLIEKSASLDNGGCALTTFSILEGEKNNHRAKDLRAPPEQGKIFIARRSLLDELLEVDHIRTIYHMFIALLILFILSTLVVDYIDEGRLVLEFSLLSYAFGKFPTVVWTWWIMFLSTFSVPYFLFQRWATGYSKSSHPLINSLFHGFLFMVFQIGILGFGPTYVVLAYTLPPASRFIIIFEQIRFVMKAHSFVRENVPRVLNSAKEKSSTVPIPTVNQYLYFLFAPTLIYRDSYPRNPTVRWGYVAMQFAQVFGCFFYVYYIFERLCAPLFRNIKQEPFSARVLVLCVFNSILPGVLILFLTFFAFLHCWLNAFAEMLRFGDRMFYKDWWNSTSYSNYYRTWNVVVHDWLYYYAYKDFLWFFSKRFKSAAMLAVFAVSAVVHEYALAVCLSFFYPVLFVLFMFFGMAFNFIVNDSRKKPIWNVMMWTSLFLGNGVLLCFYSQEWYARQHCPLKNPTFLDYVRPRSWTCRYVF
Briefly: Inhibition of African green monkey SOAT1 expressed in CHO cells using [1-14C]oleic acid incubated for 6 hrs by TLC based method. It counts as cell-based.

A short description of experiment [6]: Inhibition of SOAT in CHOK1 cell microsomal fraction using [1-14C]oleoyl-CoA as substrate measured after 5 mins by TLC based method. Further details: species or system Cricetulus griseus.
Experiment [7] can be described thus: Inhibition of DGAT in CHOK1 cell microsomal fraction using [14C]palmitoyl-CoA as substrate measured after 15 mins TLC based method. Details: species or system Cricetulus griseus.
Experiment [8] addresses T3, Sterol O-acyltransferase 2 (Chlorocebus aethiops, UniProt O77759).
T3 sequence (O77759 whole entry): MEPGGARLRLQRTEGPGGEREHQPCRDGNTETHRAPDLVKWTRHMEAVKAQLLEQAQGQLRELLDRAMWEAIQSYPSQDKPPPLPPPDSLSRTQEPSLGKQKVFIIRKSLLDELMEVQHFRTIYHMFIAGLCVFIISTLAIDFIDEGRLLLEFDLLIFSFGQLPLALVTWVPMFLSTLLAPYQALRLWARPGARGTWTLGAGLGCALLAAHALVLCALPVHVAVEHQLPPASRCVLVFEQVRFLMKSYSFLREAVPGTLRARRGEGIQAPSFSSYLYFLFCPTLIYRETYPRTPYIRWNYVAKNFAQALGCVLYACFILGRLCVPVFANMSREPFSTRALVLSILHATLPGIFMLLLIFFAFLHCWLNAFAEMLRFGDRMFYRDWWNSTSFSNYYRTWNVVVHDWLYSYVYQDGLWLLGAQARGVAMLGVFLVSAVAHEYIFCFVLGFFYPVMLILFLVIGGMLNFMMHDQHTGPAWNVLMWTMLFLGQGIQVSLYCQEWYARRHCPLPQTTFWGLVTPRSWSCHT
Briefly: Inhibition of African green monkey SOAT2 expressed in CHO cells using [1-14C]oleic acid incubated for 6 hrs by TLC based method. Type of experiment: cell-based.

The pIC50 is the negative decadic logarithm of the IC50, by convention in mol/L. Regarding `CC1=CCC[C@H]2[C@]3(C)Cc4cc(O)ccc4O[C@]3(C)CC[C@]12C`, the results for the negative-log IC50 (pIC50) (in experiment [1]; in [2]; with CHO-K1) were below 4.51, 4.86 and below 4.51, respectively.
Turning to `CC(=O)Oc1ccc(O)c(C[C@]2(C)[C@@H](C)CC[C@]3(C)C(C)=CCC[C@@H]23)c1`, the pIC50 in experiment [1] is below 4.56; in [2] it was 4.64; in the experiment with CHO-K1, below 4.56.
In the case of `C=C1CCC[C@H]2[C@](C)(Cc3cc(OC)ccc3O)[C@@H](C)CC[C@]12C`, the negative logarithm of the IC50 (pIC50) in [1] was below 4.53; in experiment [2] it was 4.98; with CHO-K1 it was below 4.53.
For the compound `COc1ccc(O)c(C[C@]2(C)[C@@H](C)CC[C@]3(C)C(C)=CCC[C@@H]23)c1`, the negative-log IC50 (pIC50) in experiment [1] is below 4.53; in [2], 4.94; in the experiment with CHO-K1 it was below 4.53.
In the case of `C=C1CCC[C@H]2[C@](C)(Cc3cc(O)ccc3OC(C)=O)[C@@H](C)CC[C@]12C`, the pIC50 in [1] is below 4.56; in experiment [2], 4.92; in the experiment with CHO-K1 it was below 4.56.
As for `CC(=O)Oc1ccc(OC(C)=O)c(C[C@]2(C)[C@@H](C)CC[C@]3(C)C(C)=CCC[C@@H]23)c1`, the negative logarithm of the IC50 (pIC50) in [1] is 4.63; in [2], 4.78; in the experiment with CHO-K1, below 4.61.
The corresponding values for `C=C1CCC[C@H]2[C@](C)(Cc3cc(OC(=O)CC)ccc3OC(=O)CC)[C@@H](C)CC[C@]12C` are below 4.64, 4.96 and below 4.64.
For `C=C1CCC[C@H]2[C@](C)(Cc3cc(O)ccc3O)[C@@H](C)CC[C@]12C`, the pIC50 in [3] is 4.49; in [1] it was 4.85; in [4] it was 4.85; in experiment [5] it was 4.72; in experiment [2], 4.96; in [6] it was 4.81. Further, the pIC50 in experiment [7] is 4.35; with CHO-K1 it was below 4.51; in experiment [8], 4.72.
Take `CCC(=O)Oc1ccc(OC(=O)CC)c(C[C@]2(C)[C@@H](C)CC[C@]3(C)C(C)=CCC[C@@H]23)c1`: the pIC50 in experiment [1] was 4.87; in experiment [2], 4.78; in the experiment on CHO-K1, below 4.64.
The corresponding values for `C=C1CCC[C@H]2[C@](C)(Cc3cc(OC(C)=O)ccc3OC(C)=O)[C@@H](C)CC[C@]12C` are below 4.61, 4.97 and below 4.61.
The like results for `CC1=CCC[C@H]2[C@](C)(CC3=CC(=O)C=C(N)C3=O)[C@@H](C)CC[C@]12C` were, in that order, 4.56, 4.88 and below 4.51.
The like results for `C=C1CCC[C@H]2[C@](C)(Cc3cc(OC(C)=O)ccc3O)[C@@H](C)CC[C@]12C` were, in that order, below 4.56, 4.80 and below 4.56.
For `CC(=O)Oc1ccc(O)cc1C[C@]1(C)[C@@H](C)CC[C@]2(C)C(C)=CCC[C@@H]12`, the negative logarithm of the IC50 (pIC50) was below 4.56 in experiment [1], 4.86 in [2] and below 4.56 with CHO-K1.
Regarding `CC1=CCC[C@H]2[C@](C)(Cc3cc(O)ccc3O)[C@@H](C)CC[C@]12C` [AVAROL], the negative logarithm of the IC50 (pIC50) in experiment [3] was 4.92; in [1], 5.17; in experiment [4], 5.09; in experiment [5], 4.85; in experiment [2] it was 5.24; in experiment [6], 5.14. In addition, the pIC50 is 4.70 in [7], below 4.51 with CHO-K1 and 4.83 in experiment [8].
